For series [1], the system named is human cardiac OOC. The experiment in a line: Cardiac OOC calcium transients, isoproterenol response after linsitinib exposure. It is filed as cell-based. The note with it: tissues exposed to linsitinib, then 1 μM isoproterenol. Here is the method:
Isoproterenol response: Samples were loaded with Fluo-4, AM, cell permeant (Invitrogen) in RPMI Medium 1630 supplemented with B27 for 30 min at 37° C. […] Videos were analysed in MATLAB using a custom script that calculated the temporal changes in calcium fluorescence intensity. Each frame was normalized to a baseline background region chosen by the user to give baseline-corrected changes in minimum and maximum fluorescence values for each frame. The temporal changes in fluorescence intensity were presented in calcium transient traces from which the measurements were obtained. The calcium transient timing was determined as the peak-to-peak values of two successive beats as defined by the peak maxima.
Calcium transient traces were also analyzed 10 minutes after exposure to 1 μM isoproterenol hydrochloride, diluted in RPMI Medium 1630 supplemented with B27™.

The test system of series [2] is ES model. The experiment in a line: Immunohistochemical Ki67 staining and TUNEL assay of the ES model. It is filed as cell-based, human. As to conditions: ES model after linsitinib treatment. The source says:
To assess apoptosis, paraffin embedded tissue sections were first deparaffinized with CitriSolv, rehydrated with graded series of ethanol washes, and then stained with a Click-iT® TUNEL Alexa Fluor® imaging assay (Thermo Fisher Scientific).

Series [3] relates to metastatic (KHOS/NP cell line derived) osteosarcoma OOC. The series is described as follows: Metastatic osteosarcoma OOC, luciferase luminescence (cancer cell number and viability). It counts as cell-based, human. As to conditions: 12 μM. The method, then: (§1) Drug treatment experiments recapitulating the patient treatment regimens and the patient plasma concentration of 12 μM of linsitinib were then carried out on the nonmetastatic and metastatic TE-ES and OS models. FIGS. 44 and 45 are graphs illustrating non-metastatic (U2-OS cell line derived, FIG. 44) and metastatic (KHOS/NP cell line derived, FIG. 45) osteosarcoma OOCs exposed to linsitinib (12 μM) according to the drug treatment regimen outlined. Luminescence as a function of cancer cell number and viability was measured (mean±s.e.m., n=6 for day 3, and n=3 for day 7 and 21, biologically independent per group). Significance was determined by unpaired two-tailed Student's t test of treatment group at specific day with respective control; *P<0.05; **P<0.01; ***P<0.001. Tissue engineered bone tumor models: Using an established protocol, expanded MSCs were seeded into the bone matrix scaffolds (4 mm×4 mm×1 mm) at a concentration of 10^6 cells per scaffold, using 40 μL of medium. The cells were allowed to attach for 2 hours, and then supplemented with additional mesenchymal stem cell medium overnight. The following day, osteogenic differentiation of the seeded cells was initiated by addition of low glucose DMEM supplemented with 1 μM dexamethasone (Sigma-Aldrich), 10 mM β-glycerophosphate (SigmaAldrich), and 50 μM L-ascorbic acid-2-phosphate (Sigma Aldrich). Each scaffold was incubated in 4 mL of osteogenic media, with media changes three times a week, for 3 weeks, allowing for the MSCs to differentiate into functional, maturing osteoblasts. Two weeks following the initiation of osteogenic differentiation, aggregates of tumor cells were prepared as described previously. Briefly, 0.3×10^6 cells were used to form ES aggregates and 0.5×10^6 cells were used to form OS aggregates. […] Cell viability: Cancer cell viability was measured for GFP-Luciferase labelled cancer cells using ONE-Glo luciferase substrate that was prepared according to manufacturer's protocol (Promega). […] Cardiac cell viability was assessed through the Pierce LDH Cytotoxicity Assay Kit (Thermo Fisher Scientific). […]

Series [4] has as its system non-metastatic (U2-OS cell line derived) osteosarcoma OOC. The experiment in a line: Non-metastatic osteosarcoma OOC, luciferase luminescence (cancer cell number and viability). It is filed as cell-based, human. As to conditions: 12 μM. Here is the method:
as §1

For series [5], the system named is human cardiac OOC. The experiment in a line: Cardiac OOC hydrogen peroxide (ROS-Glo H2O2) assay. It counts as cell-based. The note with it: after linsitinib treatment. Here is the method: Tissues were randomly assigned to experimental groups. Medium was changed every day. Cardiac tissues were exposed to linsitinib for 3 days.
Hydrogen peroxide assay: After drug treatment, hydrogen peroxide (H2O2) levels in cardiac tissues were measured using ROS-Glo™ H2O2 Assay (Promega).

For the molecule `C[C@]1(O)C[C@@H](c2nc(-c3ccc4ccc(-c5ccccc5)nc4c3)c3c(N)nccn32)C1` [linsitinib, Linsitinib (OSI-906)], in series [1], the “inotropic response to isoproterenol” value is listed as “inotropic responses were not observed” and the “proarrhythmic events in calcium transients” value was “proarrhthymic events”. For the same molecule, in series [2], the “apoptosis by TUNEL assay” value was “increases in apoptosis” and the “proliferation via Ki67-staining” value is on record as “reduced proliferation”. For the same molecule, the “luminescence (cancer cell number and viability) vs control” value (from here on “luminescence … vs control”) in series [3] (after 3 days) was “significant drug response”. Also, in series [3] (by day 7), the drug efficacy result was “stopped being effective”. Besides, the course of tumor result in series [3] (day 7 to D21) is “rapidly expand before stabilizing by D21”. Besides, in series [4] (after 3 weeks), the “course of treated cancer cell population” value is “no longer expanding”. Moreover, the “luminescence … vs control” value in series [4] (after 3 weeks of drug treatment) is “significant response”. Besides, the “luminescence … vs control” value in series [4] (after 3 days) is on record as “no significant response”. Further, the “levels of reactive oxygen species (hydrogen peroxide formation)” value in series [5] is reported as “not observed”.

Values taken from patent US12529022B2, “Human organ-on-chip models for predictive screening” (The Trustees of Columbia University in the City of New York, priority 2018, dated 2026).
